# Measurements as given in publication PMC8765781, “A platform of assays for the discovery of anti-Zika small-molecules with activity in a 3D-bioprinted outer-blood-retina model” (PLoS ONE, 2022).
# Read-outs that look alike come from different tables or passages of the source. *1 amine or outer side, *2 acyl side, *3 side chain or, on linkers, in order; H or OH if unused. Where a SMILES comes first, the peptide text is derived from it. Bridges are numbered along the chain shown (N, C = ends). [ ]: non-standard residue; d: D form. The star is where a group is joined. pTerphenylCO(4''-OnC5H11) = CCCCCOc1ccc(-c2ccc(-c3ccc(C(=O)*)cc3)cc2)cc1; Orn(4R-OH,5R-OH) = O=C([C@H](C[C@@H](O)[C@@H](O)N[*:3])N[*:1])[*:2]; hTyr(3S-OH,4S-OH) = N[C@H](C(=O)O)[C@H](O)[C@@H](O)c1ccc(O)cc1; Pro(3S-OH,4S-Me) = C[C@H]1CN[C@H](C(=O)O)[C@H]1O; Hyp = O=C(O)[C@@H]1C[C@@H](O)CN1
# Tested on: wild-type ZIKV (Ugandan MR766 strain) in Vero cells
# Assay: ZIKV cytopathic effect (CPE) inhibition qHTS assay, CellTiter-Glo readout
# Format: cell-based, Zika virus
# Conditions: for Emax: read-out: Max response
# [1] = Zika virus, Vero, read-out: Log AC50 (M) (converted)
# [2] = Zika virus, Vero, from Hill fit of the response curve, 50% of maximum activity response, 194 cherry-picked compounds, protocol name not given, read-out: AC50
# [3] = Zika virus, Vero, potency in log units (Molar) from Hill fit of the response curve, 194 cherry-picked compounds, protocol name not given, read-out: Log AC50 (converted)
# [4] = curve class v2 (Inglese et al. 2006)
# [5] = difference between neutral response and maximum compound response
# [6] = Zika virus, Vero, read-out: Log AC50 (converted)
SMILES,CC-v2 (curve class classification of the dose response curve),Efficacy,"AC50 (Zika virus, Vero) [M]",AC50 [1] [M],further results
C=C1C(=O)OC2/C=C(\C)C3=CC(=O)C(C)(CC(OC(=O)/C(C)=C/COC(C)=O)C12)O3 (stereo not shown) [NCGC00384503-01],-2.1,-109.374,3.17e-05,3.17e-05,
CC1=CC(=O)[C@@H](O)[C@]2(C)C3[C@@H](O)[C@@H]4OC(=O)[C@@H]([C@H]4C)[C@]3(C)C(=O)C[C@@H]12 (stereo partly shown) [NCGC00384574-01],-1.2,-58.007,1.61e-06,1.61e-06,
C=C1CC2OC(=O)C(=C)C2C(OC(=O)/C(C)=C\C)CC2(C)OC1=CC2=O (stereo not shown) [NCGC00384607-01],-3,-115.469,4.53e-05,4.53e-05,
COC1CCCC(C)OC(=O)Cc2cc(O)cc(O)c2C(=O)C1 (stereo not shown) [NCGC00384664-01],,,,,AC50 [2]: 4.53e-05 M; AC50 [3]: 4.53e-05 M; CC-v2 (curve class classification of the dose response curve) [4]: -3; Efficacy [5]: -54.826
C[C@@H]1O[C@@H](O[C@H]2[C@H](O[C@H]3CC[C@@]4(C)C(CC[C@]5(C)C4C=C[C@]46OC[C@@]7(CCC(C)(C)C[C@H]74)[C@@H](O[C@@H]4O[C@@H](C)[C@H](O)[C@@H](O)[C@H]4O)C[C@]65C)[C@]3(C)CO)O[C@H](CO)[C@@H](O)[C@@H]2O[C@@H]2O[C@H](CO)[C@@H](O)[C@H](O)[C@H]2O)[C@H](O)[C@H](O)[C@H]1O (stereo partly shown) [NCGC00384707-01],,-27.107,6.18e-06,6.18e-06,
CC1=CC(=O)[C@@H](O)[C@]2(C)C3[C@@H](O)[C@@H]4OC(=O)[C@@H]([C@H]4C)[C@]3(C)C(=O)[C@H](O)[C@@H]12 (stereo partly shown) [NCGC00384766-01],,,,,AC50 [2]: 9.04e-06 M; AC50 [3]: 9.04e-06 M; Efficacy [5]: -50.694
COc1ccc(CC2C(=O)NC(C)C(=O)N(C)C3Cc4ccc(cc4)Oc4cc(ccc4OC4OC(CO)C(O)C(O)C4O)CC(C(=O)NC(C)C(=O)NC(C)C(=O)N2C)N(C)C3=O)cc1 (stereo not shown) [NCGC00384826-01],,,,,AC50 [2]: 6.18e-06 M; AC50 [3]: 6.18e-06 M; CC-v2 (curve class classification of the dose response curve) [4]: -2.2; Efficacy [5]: -63.548
CC(/C=C/C=C(\C)C(=O)O[C@@H]1O[C@H](CO[C@@H]2O[C@H](CO)[C@@H](O)[C@H](O)[C@H]2O)[C@@H](O)[C@H](O)[C@H]1O)=C\C=C\C=C(C)\C=C\C=C(/C)C(=O)O[C@@H]1C[C@](O)(C(=O)O)C[C@@H](O)[C@H]1OC(=O)/C=C/c1ccc(O)c(O)c1 [NCGC00384868-01],-3,-78.383,6.93e-06,6.93e-06,
C[C@@H]1C[C@@H]([C@@H](O)C(C)(C)O)O[C@H]2C[C@@]3(C)C(=C12)C[C@H](O)[C@H]1[C@@]2(C)CCC(=O)C(C)(C)C2CC[C@@]13C (stereo partly shown) [NCGC00384870-01],-3,-67.591,1.59e-05,1.59e-05,
C=C[C@H]1[C@H](O[C@@H]2O[C@H](CO)[C@@H](O)[C@H](O)[C@H]2O)OC=C(C(=O)OC)[C@H]1CCO [NCGC00384878-01],-3,-80.569,2.02e-05,2.02e-05,
CC(=O)OC[C@]12C[C@H](OC(=O)CC(C)C)C(C)=C[C@H]1O[C@@H]1[C@H](O)C[C@@]2(C)[C@]12CO2 [NCGC00385002-01],,-46.392,,,Log AC50 (M): -5.6492 M; Max Resp: -19.758; AC50 (read-out: AC50): 2.24e-06 M
CC(=O)O[C@H]1CC2C(COC(=O)CC(C)C)=CO[C@@H](OC(=O)CC(C)C)C2[C@]12CO2 (stereo partly shown) [NCGC00385012-01],-3,-34.82,3.17e-05,3.17e-05,
C/C=C/c1ccc2oc(-c3ccc(O)c(OC)c3)c(C)c2c1 [NCGC00385078-01],-3,-53.705,2.31e-05,2.31e-05,
CC(=O)OC12C(O)C(C)C3(O)C4C=C(C)C(=O)C4CC(CO)=CC3C1C2(C)C (stereo not shown) [NCGC00385123-01],-3,-66.621,1.12e-05,1.12e-05,
COC(=O)[C@@]1(C)C(=O)C=C[C@]2(C)c3c(O)cc(C(C)C)cc3[C@H](O)[C@@H](OC(C)=O)C12 (stereo partly shown) [NCGC00385132-01],-3,-68.661,1.42e-05,1.42e-05,
CC1CCC2(C(=O)OC3OC(CO)C(O)C(O)C3O)CCC3(C)C(=CCC4C5(C)CCC(O)C(C)(CO)C5CCC43C)C2C1(C)O (stereo not shown) [NCGC00385137-01],-3,-66.194,6.11e-06,6.11e-06,
CC(C)c1c(O)ccc2c1CC[C@H]1C(C)(C)CCC[C@]21C [NCGC00385162-01],,-41.688,5.8e-05,,"Curve class: -3; AC50 [6]: 5.8e-05 M; Emax (Zika virus, Vero): -36.8%"

SMILES,CC-v2 (curve class classification of the dose response curve),Efficacy,"AC50 (Zika virus, Vero) [M]",AC50 [1] [M],further results
C=C(C(=O)O[C@H]1C/C(C)=C/CC/C(CO)=C/[C@H]2OC(=O)C(=C)[C@H]12)C(O)CO (stereo partly shown) [NCGC00385206-01],-3,-104.223,4.53e-05,4.53e-05,
COc1ccc(CC2C(=O)NC(C)C(=O)N(C)C3Cc4ccc(cc4)Oc4cc(ccc4OC4OC(CO)C(O)C(O)C4O)CC(C(=O)NC(C)C(=O)NC(CCC(=O)O)C(=O)N2C)N(C)C3=O)cc1 (stereo not shown) [NCGC00385295-01],-2.2,-76.149,4.91e-06,4.91e-06,
COc1cc2c(cc1O)C1(Cc3ccc4c(c3C1O)OCO4)[N+](C)([O-])CC2 (stereo not shown) [NCGC00385471-01],,-50.391,6.4e-07,6.4e-07,
C=C1C(=O)O[C@H]2CC(=C)[C@H]3CC[C@@](C)(O)[C@@H]3CC12 (stereo partly shown) [NCGC00385616-01],-3,-31.171,7.31e-05,7.31e-05,
C[C@H]1CC[C@@]2(OC1)O[C@H]1CC3[C@@H]4CC[C@@H]5C[C@@H](O[C@@H]6O[C@H](CO)[C@@H](O[C@@H]7O[C@H](CO[C@@H]8OC[C@@H](O)[C@H](O)[C@H]8O)[C@@H](O[C@@H]8O[C@H](CO)[C@H](O)[C@H](O)[C@H]8O)[C@H](O)[C@H]7O)[C@H](O)[C@H]6O)CC[C@]5(C)C4CC[C@]3(C)[C@H]1[C@@H]2C (stereo partly shown) [NCGC00385658-01],,,,,AC50 [2]: 3.48e-06 M; AC50 [3]: 3.48e-06 M; Efficacy [5]: -25.029
C=C1C(=O)O[C@@H]2/C=C(\CO)CC/C=C(/C=O)C[C@H](O)[C@@H]12 [NCGC00385803-01],,-41.449,6.51e-05,,"Curve class: -3; AC50 [6]: 6.51e-05 M; Emax (Zika virus, Vero): -37.5%"
C/C=C(/C)C(=O)OC1CC(C)(C)CC2C3=CCC4C5(C)CCC(O[C@@H]6O[C@H](C(=O)O)[C@@H](O)[C@H](O)[C@H]6O[C@@H]6O[C@H](CO)[C@H](O)[C@H](O[C@@H]7OC[C@H](O)[C@H](O)[C@H]7O[C@@H]7O[C@H](CO)[C@@H](O)[C@H](O)[C@H]7O)[C@H]6O)C(C)(C)C5CCC4(C)C3(C)C(O)C(O)C12CO (stereo partly shown) [NCGC00386019-01],,-41.4,9.77e-06,9.77e-06,
CC(C)=CCC/C(C)=C/COCC1OC(n2ccc(=O)[nH]c2=O)C(O)C1O (stereo not shown) [NCGC00386057-01],,-46.076,4.53e-05,4.53e-05,
CC1CCC2C(C)(C)C(O)CCC2(C)C12Cc1c(O)cc3c(c1O2)CNC3=N (stereo not shown) [NCGC00386084-01],,-59.279,5.08e-07,5.08e-07,
COc1cccc(C)c1C(=O)O[C@@H]1C[C@H](O[C@H]2[C@H](O)C[C@H](O[C@@H]3CCC[C@H]4[C@H]3C=C[C@@H]3CCCC/C=C/[C@H]5C=C(C(=O)O)[C@@H](C)C[C@@]56OC(=O)C(=C6O)OC(=O)[C@@]34C)O[C@@H]2C)O[C@H](C)[C@H]1O [NCGC00386109-01],,-37.18,1.23e-05,1.23e-05,
C=C1/C(=C/C=C2\CCC[C@]3(C)[C@@H]([C@H](C)/C=C/[C@@H](C)C(C)C)CC[C@@H]23)C[C@@H](O)C[C@@H]1O [NCGC00386145-01],-3,-42.433,6.51e-05,6.51e-05,
C=CC(C)(O)CC[C@@H]1[C@@]2(C)CCCC(C)(C)C2CC[C@@]1(C)O (stereo partly shown) [NCGC00386171-01],,-26.101,5.8e-05,5.8e-05,
C=CC(=O)Nc1ccc2ncnc(Nc3cccc(Br)c3)c2c1 [NCGC00386260-02],,-35.975,7.31e-05,,"Curve class: -3; AC50 [6]: > 4.6e-05 M; Emax (Zika virus, Vero): -31.6%"
Cc1cc(C)c(-c2csc(NC(=O)c3ccccc3)n2)c(C)c1 [NCGC00386342-01],,-75.252,2.31e-05,,"Curve class: -3; AC50 [6]: 2.31e-05 M; Emax (Zika virus, Vero): 8.19%"
"CCCCCOc1ccc(-c2ccc(-c3ccc(C(=O)N[C@H]4C[C@@H](O)[C@@H](O)NC(=O)[C@@H]5[C@@H](O)[C@@H](C)CN5C(=O)[C@H]([C@@H](C)O)NC(=O)[C@H]([C@H](O)[C@@H](O)c5ccc(O)cc5)NC(=O)[C@@H]5C[C@@H](O)CN5C(=O)[C@H]([C@@H](C)O)NC4=O)cc3)cc2)cc1 [NCGC00386349-01] ({pTerphenylCO(4''-OnC5H11)}-[Orn(4R-OH,5R-OH)]T[Hyp][hTyr(3S-OH,4S-OH)]T[Pro(3S-OH,4S-Me)]; lactam 1-C)",-2.2,-31.74,1.26e-05,1.26e-05,
CN(CC[C@H](N)CC(=O)N[C@H]1C=C[C@@H](n2ccc(N)nc2=O)O[C@@H]1C(=O)O)C(=N)N [NCGC00386414-01],-1.1,-84.972,2.66e-06,2.66e-06,
